Results taken from ChEMBL document CHEMBL4000154, “Pyristriatins A and B: Pyridino-Cyathane Antibiotics from the Basidiomycete Cyathus cf. striatus” (J Nat Prod, 2016).
Values after ≈ are worked out from the molar mass of the structure shown. Active and inactive are the calls of the source. The calls are words filed in the database; no cut-off is given here.

Assays:
[1] = test system: Bacillus subtilis; test: Antibacterial activity against Bacillus subtilis DSM 10 after 24 to 48 hrs by serial dilution method; assay type: functional
[2] = test system: HUVEC; test: Cytotoxicity against HUVEC after 5 days by MTT assay; assay type: cell-based; conditions: Homo sapiens, 120 h
[3] = test system: Chromobacterium violaceum; test: Antibacterial activity against Chromobacterium violaceum DSM 30191 after 24 to 48 hrs by serial dilution method; assay type: functional
[4] = test system: Candida albicans; test: Antifungal activity against Candida albicans DSM 1665 after 24 to 48 hrs by serial dilution method; assay type: functional
[5] = test system: Schizosaccharomyces pombe; test: Antifungal activity against Schizosaccharomyces pombe DSM 70572 after 24 to 48 hrs by serial dilution method; assay type: functional
[6] = test system: Mucor plumbeus; test: Antifungal activity against Mucor plumbeus MUCL 49355 after 24 to 48 hrs by serial dilution method; assay type: functional
[7] = test system: Staphylococcus aureus; test: Antibacterial activity against Staphylococcus aureus DSM 346 after 24 to 48 hrs by serial dilution method; assay type: functional
[8] = test system: Escherichia coli; conditions: DSM 498
Description: (§1) Antibacterial activity against Escherichia coli DSM 498 after 24 to 48 hrs by serial dilution method

[9] = test system: Rhodotorula glutinis; test: Antifungal activity against Rhodotorula glutinis DSM 10134 after 24 to 48 hrs by serial dilution method; assay type: functional
[10] = test system: Pseudomonas aeruginosa; test: Antibacterial activity against Pseudomonas aeruginosa PA14 after 24 to 48 hrs by serial dilution method; assay type: functional
[11] = test system: KB 3-1; test: Cytotoxicity against human KB 3.1 cells after 5 days by MTT assay; assay type: functional, cell-based; conditions: KB 3-1, 120 h
[12] = test system: L929; test: Cytotoxicity against mouse L929 cells after 5 days by MTT assay; assay type: cell-based; conditions: L929, 120 h
[13] = test system: Wickerhamomyces anomalus; test: Antifungal activity against Pichia anomala DSM 6766 after 24 to 48 hrs by serial dilution method; assay type: functional
[14] = test system: Micrococcus luteus; test: Antibacterial activity against Micrococcus luteus DSM 1790 after 24 to 48 hrs by serial dilution method; assay type: functional
[15] = test system: Escherichia coli; test: microbe, parasite or virus in culture; conditions: DSM 498
Description: as §1

CO[C@H]1O[C@H]2c3c(cnc(C(=O)CO)c31)C[C@H](O)[C@@H]1C3=C(C(C)C)CC[C@]3(C)CC[C@@]21C
MIC [1]: 9.4 µg/mL (≈ 21.3 µM) | IC50 [2]: 5.9 µM | MIC [3]: inactive | MIC [4]: inactive | MIC [5]: 16.7 µg/mL (≈ 37.8 µM) | MIC [6]: 150 µg/mL (≈ 340 µM) | MIC [7]: 16.7 µg/mL (≈ 37.8 µM) | MIC [8]: inactive | MIC [9]: 16.7 µg/mL (≈ 37.8 µM) | MIC [10]: inactive | IC50 [11]: 14.7 µM | IC50 [12]: 16.3 µM | MIC [13]: inactive | MIC [14]: 16.7 µg/mL (≈ 37.8 µM)

C/C(=C\c1csc(C)n1)[C@@H]1C[C@@H]2O[C@]2(C)CCC[C@H](C)[C@H](O)[C@@H](C)C(=O)C(C)(C)[C@@H](O)CC(=O)O1 [PATUPILONE]
IC50 [2]: 0.00055 µM | IC50 [11]: 0.00022 µM

C/C(=C\c1csc(C)n1)[C@@H]1C[C@@H]2O[C@@H]2CCC[C@H](C)[C@H](O)[C@@H](C)C(=O)C(C)(C)[C@@H](O)CC(=O)O1 [EPOTHILONE A]
IC50 [12]: 0.0038 µM

NYSTATIN
MIC [4]: 16.7 µg/mL | MIC [5]: 66.7 µg/mL | MIC [6]: 9.4 µg/mL | MIC [9]: 66.7 µg/mL | MIC [13]: 16.7 µg/mL

CO[C@@H]1O[C@H]2c3c(cnc(C(=O)CO)c31)C[C@H](O)[C@@H]1C3=C(C(C)C)CC[C@]3(C)CC[C@@]21C
MIC [1]: 9.4 µg/mL (≈ 21.3 µM) | IC50 [2]: 6.3 µM | MIC [3]: inactive | MIC [4]: inactive | MIC [5]: 8.3 µg/mL (≈ 18.8 µM) | MIC [6]: 150 µg/mL (≈ 340 µM) | MIC [7]: 8.3 µg/mL (≈ 18.8 µM) | MIC [8]: inactive | MIC [9]: 8.3 µg/mL (≈ 18.8 µM) | MIC [10]: inactive | IC50 [11]: 12.7 µM | IC50 [12]: 15.4 µM | MIC [13]: inactive | MIC [14]: 8.3 µg/mL (≈ 18.8 µM)

CN(C)[C@@H]1C(O)=C(C(N)=O)C(=O)[C@@]2(O)C(O)=C3C(=O)c4c(O)cccc4[C@@](C)(O)[C@H]3[C@H](O)[C@@H]12 [OXYTETRACYCLINE]
MIC [3]: 2.1 µg/mL (≈ 4.56 µM) | MIC [7]: 1 µg/mL (≈ 2.17 µM) | MIC [14]: 8.3 µg/mL (≈ 18 µM)

O=C(O)c1cn(C2CC2)c2cc(N3CCNCC3)c(F)cc2c1=O [CIPROFLOXACIN]
MIC [1]: ≤ 2.3 µg/mL | MIC [15]: ≤ 2.3 µg/mL
